In patent publication US20180093956A1, “SUBSTITUTED PHTHALAZINES” (AbbVie Inc., priority 2015, published 2018):
Like-named read-outs stand apart in the source and are kept apart here.

Experiments:
[1] = test system: H4K20me3 in PC-3 cells (SUV420H1 cellular activity); assay: H4K20me3 Cellular PD Assay (high content microscopy); format: cell-based; conditions: treated for 72 hours, H4K20me3 immunofluorescence, read-out: H4K20me3 Inhibition EC50
Procedure: A high content microscopy-based PD assay was used to analyze the decrease of H4K20me3 upon inhibition of SUV420H1 cellular activity. PC-3 cells were plated at 3,000 cells per well in black Collagen I coated 96-well plates (Perkin Elmer, #6005810) in RPMI supplemented with 10% heat inactivated FBS, 1% sodium pyruvate and 1% non-essential amino acids in a 37° C. tissue culture incubator. At 24 hours post seeding, cells were treated with the indicated compounds for 72 hours in an 8-point dose response using half log dilutions from […] and then fixed in 2% formaldhyde (Polysciences, Inc., #04018) for 10 minutes at room temperature. Cells were washed in PBS and permeablized in 0.1% Triton X-100 for 10 minutes at room temperature. After blocking in 1% BSA (Sigma, #A7030) in PBS for 1 hour at room temperature, a mouse monoclonal antibody directed toward H4K20me3 (Santa Cruz, #sc-134216) in antibody dilution buffer (0.3% BSA in PBS) was added for 16 hours at 4° C. Cells were then washed 3 times in PBS and an Alexa Fluor 555 conjugated goat anti-mouse (Life Technologies #A-21424) secondary antibody was added for 1 hour at room temperature. Hoechst 33342 diluted 1:10000 (Life Technologies #H3570) was also added during the secondary antibody incubation. Cells were washed 3 times in PBS and stored in PBS at 4° C. Fluorescent images were acquired within 24 hours on a Cell Insight (Thermo Fisher Scientific) using the Target Activation algorithm. Objects were identified via nuclear Hoescht staining, and changes in average mean intensity in the fluorescent signals of H4K20me3 were quantified using the HCS View software platform (Thermo Fisher Scientific).

SUV420H1 enzyme = SUV420H1 enzyme (Homo sapiens, UniProt Q4FZB7); assay: TR-FRET SAH SUV420H1 enzyme inhibition assay; format: biochemical; conditions: Histone Peptide H4(8-30)me1 and SAM, TR-FRET detection of SAH, read-out: TR-FRET SAH_SUV420H1 IC50
Chain of SUV420H1 enzyme (Q4FZB7 whole entry): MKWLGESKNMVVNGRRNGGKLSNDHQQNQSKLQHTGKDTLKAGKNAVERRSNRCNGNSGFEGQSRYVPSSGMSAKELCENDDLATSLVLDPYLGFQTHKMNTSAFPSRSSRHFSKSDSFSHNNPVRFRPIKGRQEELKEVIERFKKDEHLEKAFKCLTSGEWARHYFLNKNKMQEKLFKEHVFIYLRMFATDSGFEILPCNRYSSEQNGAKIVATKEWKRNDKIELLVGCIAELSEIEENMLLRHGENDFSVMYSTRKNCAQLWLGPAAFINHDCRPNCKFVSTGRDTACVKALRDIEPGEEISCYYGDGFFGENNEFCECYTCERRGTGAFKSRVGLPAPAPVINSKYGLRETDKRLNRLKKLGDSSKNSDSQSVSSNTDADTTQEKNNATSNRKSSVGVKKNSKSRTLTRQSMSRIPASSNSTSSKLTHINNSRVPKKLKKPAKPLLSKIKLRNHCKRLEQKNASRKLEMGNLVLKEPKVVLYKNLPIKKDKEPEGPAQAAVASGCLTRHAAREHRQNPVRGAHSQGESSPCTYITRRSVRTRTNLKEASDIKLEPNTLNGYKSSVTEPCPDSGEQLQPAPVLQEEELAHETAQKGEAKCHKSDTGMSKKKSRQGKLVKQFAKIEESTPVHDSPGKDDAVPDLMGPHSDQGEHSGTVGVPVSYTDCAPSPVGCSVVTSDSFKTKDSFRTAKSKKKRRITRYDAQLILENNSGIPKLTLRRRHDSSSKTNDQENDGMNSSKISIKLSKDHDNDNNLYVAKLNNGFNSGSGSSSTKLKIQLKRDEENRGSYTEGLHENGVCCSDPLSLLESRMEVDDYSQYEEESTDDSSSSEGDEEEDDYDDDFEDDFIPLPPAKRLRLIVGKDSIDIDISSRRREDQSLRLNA
Procedure: Test compounds were dispensed by a Labcyte Echo in 384-well low volume assay plates with 3-fold serial dilutions from 50 μM to 0.00075 μM. 5 μL of SUV420H1 enzyme (Abbvie) at 90 nM was added to all wells except for the no enzyme control wells and incubated for 30 minutes at room temperature before 5 μL of Histone Peptide H4(8-30)me1 (Anaspec) at 5 μM and SAM at 4 μM was added to all wells. The plates were incubated in a humidified chamber overnight at room temp and then 10 μL of the detection reagent that contained RIPA buffer (50 mM Tris-HCl, pH 8.0, 150 mM sodium chloride, 1.0% Igepal CA-630 (NP-40), 0.5% sodium deoxycholate and 0.1% sodium dodecyl sulfate) (Sigma) with 2 nM of Terbium chelate anti S-adenosyl-L-homocysteine (SAH) (Abbvie) antibody and Oregon Green labeled SAH at 4 nM was added. The plates were further incubated for 4 hours at room temperature. The plates were read in a Perkin Elmer Envision using a TR-FRET protocol with Excitation set at 335 nm and Emission at 520 and 495 nm. To generate dose response curves the data is normalized to percent inhibition by setting the average of the plus and minus enzyme control wells to 0% and 100% inhibition respectively. The ICso values for the compounds are generated by fitting the normalized data with Accelrys Assay Explorer 3.3 to a sigmoidal curve model using […], Y=(100*x^n)/(K^n+x^n), where Y is the measured response, x is the compound concentration, n is the Hill Slope and K is the IC50 and the lower and higher asymptotes are constrained to 0 and 100 respectively.

Row | Compound | EC50 ([1]; Homo sapiens) | IC50 (SUV420H1 enzyme) | EC50 [1]
1 | O=C(C1CC1)N1CC=C(c2nnc(NC3CCCC3)c3cc(Cl)c(Cl)cc23)CC1 [Example 70, cyclopropyl {4-[6,7-dichloro-4-(cyclopentylamino)phthalazin-1-yl]-3,6-dihydropyridin-1(2H)-yl}methanone] | 15.6 µM |  | 
2 | Clc1cc2c(NC3CCCC3)nnc(-c3ccncc3)c2cc1Cl [Example 6, 6,7-dichloro-N-cyclopentyl-4-(pyridin-4-yl)phthalazin-1-amine] | 0.522 µM | 0.0386 µM | 
3 | Clc1cc2c(Cl)nnc(NC3CCCC3)c2cc1Cl [Example 1, 4,6,7-trichloro-N-cyclopentylphthalazin-1-amine] | 11.4 µM | 0.361 µM | 
4 | COC(=O)c1nnc(NC2CCCC2)c2cc(Cl)c(Cl)cc12 [Example 37, methyl 6,7-dichloro-4-(cyclopentylamino)phthalazine-1-carboxylate] | 1.12 µM | 0.0903 µM | 
5 | 1-{4-[6,7-dichloro-4-(cyclopentylamino)phthalazin-1-yl]pyridin-2-yl}pyrrolidin-3-ol [Example 36] |  | 0.173 µM | 1.67 µM
6 | OC1CCN(c2cc(-c3nnc(NC4CCCC4)c4cc(Cl)c(Cl)cc34)ccn2)CC1 [Example 29, 1-{4-[6,7-dichloro-4-(cyclopentylamino)phthalazin-1-yl]pyridin-2-yl}piperidin-4-ol] | 3.08 µM | 0.47 µM | 
7 | Cn1cc(NC(=O)c2nnc(NC3CCCC3)c3cc(Cl)c(Cl)cc23)cn1 [Example 54, 6,7-dichloro-4-(cyclopentylamino)-N-(1-methyl-1H-pyrazol-4-yl)phthalazine-1-carboxamide] | > 20 µM | 0.147 µM | 
8 | O=C(Cn1cc(-c2nnc(NC3CCCC3)c3cc(Cl)c(Cl)cc23)cn1)N1CCC(O)CC1 [Example 64, 2-{4-[6,7-dichloro-4-(cyclopentylamino)phthalazin-1-yl]-1H-pyrazol-1-yl}-1-(4-hydroxypiperidin-1-yl)ethanone] | 6.57 µM | 0.188 µM | 
9 | CN1CCN(c2nnc(NC3CCCC3)c3cc(Cl)c(Cl)cc23)CC1 [Example 9, 6,7-dichloro-N-cyclopentyl-4-(4-methylpiperazin-1-yl)phthalazin-1-amine] | 3.43 µM | 0.373 µM | 
10 | CC(=O)N1CCN(C(=O)Cn2cc(-c3nnc(NC4CCCC4)c4cc(Cl)c(Cl)cc34)cn2)CC1 [Example 62, 1-(4-acetylpiperazin-1-yl)-2-{4-[6,7-dichloro-4-(cyclopentylamino)phthalazin-1-yl]-1H-pyrazol-1-yl}ethanone] | 10.5 µM | 0.333 µM | 
11 | Cn1ccc(-c2nnc(NC3CCCC3)c3cc(Cl)c(Cl)cc23)n1 [Example 4, 6,7-dichloro-N-cyclopentyl-4-(1-methyl-1H-pyrazol-3-yl)phthalazin-1-amine] | 1.16 µM | 0.0942 µM | 
12 | NC(=O)c1nnc(NC2CCCC2)c2cc(Cl)c(Cl)cc12 [Example 42, 6,7-dichloro-4-(cyclopentylamino)phthalazine-1-carboxamide] | 2.83 µM | 0.127 µM | 
13 | Cn1cc(C(=O)N2CC=C(c3nnc(NC4CCCC4)c4cc(Cl)c(Cl)cc34)CC2)cn1 [Example 78, {4-[6,7-dichloro-4-(cyclopentylamino)phthalazin-1-yl]-3,6-dihydropyridin-1(2H)-yl}(1-methyl-1H-pyrazol-4-yl)methanone] | 13.1 µM |  | 
14 | Clc1cc2c(NC3CCCC3)nnc(-c3ccsc3)c2cc1Cl [Example 7, 6,7-dichloro-N-cyclopentyl-4-(thiophen-3-yl)phthalazin-1-amine] | 1.51 µM | 0.0753 µM | 
15 | O=C(Cn1cc(-c2nnc(NC3CCCC3)c3cc(Cl)c(Cl)cc23)cn1)NCCO [Example 56, 2-{4-[6,7-dichloro-4-(cyclopentylamino)phthalazin-1-yl]-1H-pyrazol-1-yl}-N-(2-hydroxyethyl)acetamide] | 6.73 µM | 0.165 µM | 
16 | CN(CCO)C(=O)Cn1cc(-c2nnc(NC3CCCC3)c3cc(Cl)c(Cl)cc23)cn1 [Example 57, 2-{4-[6,7-dichloro-4-(cyclopentylamino)phthalazin-1-yl]-1H-pyrazol-1-yl}-N-(2-hydroxyethyl)-N-methylacetamide] | 10.7 µM | 0.204 µM | 
17 | CN1CCN(C(=O)Cn2cc(-c3nnc(NC4CCCC4)c4cc(Cl)c(Cl)cc34)cn2)CC1 [Example 61, 2-{4-[6,7-dichloro-4-(cyclopentylamino)phthalazin-1-yl]-1H-pyrazol-1-yl}-1-(4-methylpiperazin-1-yl)ethanone] | 4.99 µM | 0.19 µM | 
18 | Fc1ccc(-c2nnc(NC3CCCC3)c3cc(Cl)c(Cl)cc23)cn1 [Example 19, 6,7-dichloro-N-cyclopentyl-4-(6-fluoropyridin-3-yl)phthalazin-1-amine] | 1.21 µM | 0.163 µM | 
19 | NC1CCN(c2cc(-c3nnc(NC4CCCC4)c4cc(Cl)c(Cl)cc34)ccn2)C1 (stereo not shown) [Example 40, 4-[2-(3-aminopyrrolidin-1-yl)pyridin-4-yl]-6,7-dichloro-N-cyclopentylphthalazin-1-amine] | 0.532 µM | 0.229 µM | 
20 | Cn1cc(-c2nnc(NC3CCCC3)c3cc(Cl)c(Cl)cc23)cn1 [Example 5, 6,7-dichloro-N-cyclopentyl-4-(1-methyl-1H-pyrazol-4-yl)phthalazin-1-amine] | 0.505 µM | 0.111 µM | 
21 | CN(C)c1ccc(-c2nnc(NC3CCCC3)c3cc(Cl)c(Cl)cc23)cn1 [Example 20, 6,7-dichloro-N-cyclopentyl-4-[6-(dimethylamino)pyridin-3-yl]phthalazin-1-amine] | 9.54 µM | 0.415 µM | 
22 | OCCNc1ccc(-c2nnc(NC3CCCC3)c3cc(Cl)c(Cl)cc23)cn1 [Example 30, 2-({5-[6,7-dichloro-4-(cyclopentylamino)phthalazin-1-yl]pyridin-2-yl}amino)ethanol] | 0.465 µM | 1.05 µM | 
23 | O=C(NCCO)c1nnc(NC2CCCC2)c2cc(Cl)c(Cl)cc12 [Example 66, 6,7-dichloro-4-(cyclopentylamino)-N-(2-hydroxyethyl)phthalazine-1-carboxamide] | 2.49 µM | 0.14 µM | 
24 | CC(C)(C)OC(=O)Cn1cc(-c2nnc(NC3CCCC3)c3cc(Cl)c(Cl)cc23)cn1 [Example 43, tert-butyl {4-[6,7-dichloro-4-(cyclopentylamino)phthalazin-1-yl]-1H-pyrazol-1-yl}acetate] | 7.91 µM | 0.174 µM | 
25 | CN(CCO)c1ccc(-c2nnc(NC3CCCC3)c3cc(Cl)c(Cl)cc23)cn1 [Example 26, 2-{[5-[6,7-dichloro-4-(cyclopentylamino)phthalazin-1-yl]pyridin-2-yl}(methyl)amino]ethanol] | 4.5 µM | 0.389 µM | 
26 | Clc1cc2c(NC3CCCC3)nnc(N3CCCCC3)c2cc1Cl [Example 8, 6,7-dichloro-N-cyclopentyl-4-(piperidin-1-yl)phthalazin-1-amine] | 2.92 µM | 0.0871 µM | 
27 | Clc1cc2c(NC3CCCC3)nnc(-c3ccnc(N4CCNCC4)c3)c2cc1Cl [Example 18, 6,7-dichloro-N-cyclopentyl-4-[2-(piperazin-1-yl)pyridin-4-yl]phthalazin-1-amine] | 1.05 µM | 0.525 µM | 
